Assay results as given in patent publication US8883963B2 (Cadila Healthcare Limited, priority 2007, dated 2014).
Non-standard residues stand in square brackets, D forms with d. Residues, ends and D or L forms follow the SMILES beside them. ξ: configuration not given here. ξBip(2'-Et-4'-OMe) = CCc1cc(OC)ccc1-c1ccc(CC(N)C(=O)O)cc1; ξNva(5-(3,5-Me2-Ph)) = Cc1cc(C)cc(CCCC(N)C(=O)O)c1; Aib = CC(C)(N)C(=O)O

Experiments:
[1] = test system: C57BL/6J mice (mild hyperglycemic); assay: In vivo glucose reduction, acute single dose 120-min time-course, i.p. route; parameters: species or system mouse; unit not given here; settings: male C57BL/6J mice
Method: All the animal experiments were carried out according to the internationally valid guidelines following approval by the ‘Zydus Research Center animal ethical committee’.
Two days prior to the study, the animals were randomised and divided into 5 groups (n=6), based upon their fed glucose levels. On the day of experiment, food was withdrawn from all the cages, water was given ad-libitum and were kept for overnight fasting. Vehicle (normal saline)/test/standard compounds were administered intraperitoneally (i.p.) or orally, on a body weight basis.
(§1) Blood samples were centrifuged and the separated serum was immediately subjected for the glucose estimation. Serum for insulin estimation was stored at −70° C. until used for the insulin estimation. The glucose estimation was carried out with DPEC-GOD/POD method (Ranbaxy Fine Chemicals Limited, Diagnostic division, India), using Spectramax-190, in 96-microwell plate reader (Molecular devices Corporation, Sunnyvale, Calif.). […] The AUC and BCAUC obtained from graphs were analyzed for one way ANOVA, followed by Dunnett's post test, using Graph Pad prism software. Furthermore, the insulin estimation was carried out using rat/mouse insulin ELISA kit (Linco research, Missouri USA).

[2] = test system: C57BL/6J mice (mild hyperglycemic); assay: In vivo glucose reduction, acute single dose 120-min time-course, oral route; parameters: species or system mouse; unit not given here; settings: male C57BL/6J mice, 2 μM/kg oral
Method: Acute single dose 120-min time-course experiments were carried out in male C57BL/6J or db/db mice, age 8-12 weeks, bred in-house. Animals were housed in groups of 6 animals per cage, for a week, in order to habituate them to vivarium conditions (25±4° C., 60-65% relative humidity, 12:12 h light:dark cycle, with lights on at 7.30 am). All the animal experiments were carried out according to the internationally valid guidelines following approval by the ‘Zydus Research Center animal ethical committee’.
Two days prior to the study, the animals were randomised and divided into 5 groups (n=6), based upon their fed glucose levels. On the day of experiment, food was withdrawn from all the cages, water was given ad-libitum and were kept for overnight fasting. Vehicle (normal saline)/test/standard compounds were administered intraperitoneally (i.p.) or orally, on a body weight basis. Soon after the 0 min. blood collection from each animal, the subsequent blood collections were done at 30, 60 and 120 or up to 240 min., via retro-orbital route, under light ether anesthesia (Chen, D., et al., Diabetes Obesity Metabolism, 2005, 7, 307. Kim, J. G. et al., Diabetes, 2003, 52, 751).
as §1, with “USA). Changes in the blood glucose levels, at 0, 30, 60 and 120 min, with selected peptidomimetics are shown in Table 7 (via ip route of administration) and Table 8 (via oral route of administration) respectively.” for “USA).”

Compound | blood glucose levels ([1]; 30 nM/kg i.p., 0 min) | blood glucose levels ([1]; 30 nM/kg i.p., 30 min) | blood glucose levels ([1]; 30 nM/kg i.p., 60 min) | blood glucose levels ([1]; 30 nM/kg i.p., 120 min) | blood glucose levels ([2]; 0 min) | blood glucose levels ([2]; 30 min) | blood glucose levels ([2]; 60 min) | blood glucose levels ([2]; 120 min) | blood glucose levels ([1]; 50 nM/kg i.p., 0 min) | blood glucose levels ([1]; 50 nM/kg i.p., 30 min) | blood glucose levels ([1]; 50 nM/kg i.p., 60 min) | blood glucose levels ([1]; 50 nM/kg i.p., 120 min) | blood glucose levels ([1]; 10 nM/kg i.p., 0 min) | blood glucose levels ([1]; 10 nM/kg i.p., 30 min) | blood glucose levels ([1]; 10 nM/kg i.p., 60 min) | blood glucose levels ([1]; 10 nM/kg i.p., 120 min) | blood glucose levels ([1]; 20 nM/kg i.p., 0 min) | blood glucose levels ([1]; 20 nM/kg i.p., 30 min) | blood glucose levels ([1]; 20 nM/kg i.p., 60 min) | blood glucose levels ([1]; 20 nM/kg i.p., 120 min)
CCc1cc(OC)ccc1-c1ccc(CC(NC(=O)[C@H](CC(=O)O)NC(=O)[C@H](CO)NC(=O)[C@@H](NC(=O)[C@H](Cc2ccccc2)NC(=O)[C@@H](NC(=O)CNC(=O)[C@H](CCC(N)=O)NC(=O)C(C)(C)NC(=O)[C@@H](N)Cc2c[nH]cn2)[C@@H](C)O)[C@@H](C)O)C(=O)NC(CCCc2cc(C)cc(C)c2)C(N)=O)cc1 (stereo partly shown) [Seq. ID. 18] (H-H[Aib]QGTFTSD[ξBip(2'-Et-4'-OMe)][ξNva(5-(3,5-Me2-Ph))]-NH2) | 183 ± 3.6 | 118 ± 3.3 | 116 ± 3.2 | 117 ± 1.9 | 185 ± 2.3 | 115 ± 3.8 | 113 ± 4.9 | 109 ± 2.2 | – | – | – | – | – | – | – | – | – | – | – | –
CCc1cc(OC)ccc1-c1ccc(CC(NC(=O)[C@H](CC(=O)O)NC(=O)[C@H](CO)NC(=O)[C@@H](NC(=O)C(C)(Cc2ccccc2F)NC(=O)[C@@H](NC(=O)CNC(=O)C(CCC#N)NC(=O)C(C)(C)NC(=O)[C@@H](N)Cc2c[nH]cn2)[C@H](C)O)[C@H](C)O)C(=O)NC(CCCc2ccccc2F)C(N)=O)cc1 (single isomer, unassigned) [Seq. ID. 116] | – | – | – | – | 185 ± 2.1 | 115 ± 2.8 | 112 ± 4.9 | 111 ± 2.2 | 184 ± 5.0 | 122 ± 3.8 | 128 ± 2.1 | 149 ± 2.3 | – | – | – | – | – | – | – | –
CCc1cc(OC)ccc1-c1ccc(CC(NC(=O)[C@H](CC(=O)O)NC(=O)[C@H](CO)NC(=O)[C@@H](NC(=O)C(C)(Cc2ccccc2F)NC(=O)[C@@H](NC(=O)CNC(=O)C(CCC#N)NC(=O)C(C)(C)NC(=O)[C@@H](N)Cc2c[nH]cn2)[C@H](C)O)[C@H](C)O)C(=O)N(C)C(CCCc2ccccc2)C(N)=O)cc1 (single isomer, unassigned) [Seq. ID. 130] | 181 ± 5.2 | 119 ± 2.6 | 117 ± 2.1 | 119 ± 2.3 | 183 ± 2.4 | 116 ± 3.1 | 112 ± 4.8 | 110 ± 2.5 | – | – | – | – | – | – | – | – | – | – | – | –
CCc1cc(OC)ccc1-c1ccc(CC(NC(=O)[C@H](CC(=O)O)NC(=O)[C@H](CO)NC(=O)[C@@H](NC(=O)C(C)(Cc2ccccc2F)NC(=O)[C@@H](NC(=O)CNC(=O)[C@H](CC(C(F)(F)F)C(F)(F)F)NC(=O)C(C)(C)NC(=O)[C@@H](N)Cc2c[nH]cn2)[C@@H](C)O)[C@H](C)O)C(=O)NC(CCCc2ccccc2)C(N)=O)cc1 (single isomer, unassigned) [Seq. ID. 225] | – | – | – | – | 183 ± 2.3 | 119 ± 3.0 | 112 ± 4.3 | 109 ± 2.6 | – | – | – | – | 184 ± 5.0 | 122 ± 3.8 | 128 ± 2.1 | 149 ± 2.3 | – | – | – | –
CCc1cc(OC)ccc1-c1ccc(CC(NC(=O)[C@H](CC(=O)O)NC(=O)[C@H](CO)NC(=O)[C@@H](NC(=O)C(C)(Cc2ccccc2F)NC(=O)[C@@H](NC(=O)CNC(=O)C(CCC#N)NC(=O)C(C)(C)NC(=O)[C@@H](N)Cc2c[nH]cn2)[C@@H](C)O)[C@H](C)O)C(=O)NC(CCCc2ccccc2F)C(N)=O)cc1 (single isomer, unassigned) [Seq. ID. 120] | 182 ± 5.1 | 118 ± 2.1 | 116 ± 2.2 | 118 ± 2.4 | 184 ± 2.5 | 115 ± 1.6 | 113 ± 3.2 | 110 ± 2.4 | – | – | – | – | – | – | – | – | – | – | – | –
CCc1cc(OC)ccc1-c1ccc(CC(NC(=O)[C@H](CC(=O)O)NC(=O)[C@H](CO)NC(=O)[C@@H](NC(=O)C(C)(Cc2ccccc2F)NC(=O)[C@@H](NC(=O)CNC(=O)C(CCC#N)NC(=O)C(C)(C)NC(=O)[C@H](Cc2c[nH]cn2)NC(C)=O)[C@@H](C)O)[C@@H](C)O)C(=O)NC(CCCc2ccccc2F)C(N)=O)cc1 (single isomer, unassigned) [Seq. ID. 207] | – | – | – | – | 183 ± 2.4 | 116 ± 3.1 | 112 ± 4.8 | 110 ± 2.5 | 184 ± 5.0 | 122 ± 3.8 | 128 ± 2.1 | 149 ± 2.3 | – | – | – | – | – | – | – | –
CCc1cc(OC)ccc1-c1ccc(CC(NC(=O)[C@H](CC(=O)O)NC(=O)[C@H](CO)NC(=O)[C@@H](NC(=O)[C@H](Cc2ccccc2)NC(=O)[C@@H](NC(=O)CNC(=O)C(CCC#N)NC(=O)C(C)(C)NC(=O)[C@@H](N)Cc2c[nH]cn2)[C@@H](C)O)[C@@H](C)O)C(=O)NC(CCCc2ccc(OC)cc2Cl)C(N)=O)cc1 (single isomer, unassigned) [Seq. ID. 84] | – | – | – | – | 183 ± 2.4 | 116 ± 3.1 | 112 ± 4.8 | 110 ± 2.5 | – | – | – | – | 182 ± 2.3 | 110 ± 2.3 | 112 ± 3.0 | 112 ± 1.9 | – | – | – | –
CCc1cc(OC)ccc1-c1ccc(CC(NC(=S)[C@H](CC(=O)O)NC(=O)[C@H](CO)NC(=O)[C@@H](NC(=O)C(C)(Cc2ccccc2F)NC(=O)[C@@H](NC(=O)CNC(=O)C(CCC#N)NC(=O)C(C)(C)NC(=O)[C@@H](N)Cc2c[nH]cn2)[C@H](C)O)[C@H](C)O)C(=S)NC(CCCc2ccccc2F)C(N)=O)cc1 (single isomer, unassigned) [Seq. ID. 180] | – | – | – | – | 184 ± 2.2 | 118 ± 3.3 | 112 ± 4.4 | 110 ± 2.9 | – | – | – | – | – | – | – | – | 180 ± 3.1 | 122 ± 3.9 | 129 ± 2.2 | 140 ± 2.9
CCc1cc(OC)ccc1-c1ccc(CC(C(=O)N(C)C(CCCc2ccccc2)C(N)=O)N(C)C(=O)[C@H](CC(=O)O)NC(=O)[C@H](CO)NC(=O)[C@@H](NC(=O)C(C)(Cc2ccccc2F)NC(=O)[C@@H](NC(=O)CNC(=O)C(CCC#N)NC(=O)C(C)(C)NC(=O)[C@@H](N)Cc2c[nH]cn2)[C@H](C)O)[C@H](C)O)cc1 (single isomer, unassigned) [Seq. ID. 142] | 183 ± 4.9 | 117 ± 2.5 | 116 ± 2.3 | 119 ± 2.0 | 185 ± 2.3 | 115 ± 3.8 | 113 ± 4.9 | 109 ± 2.2 | – | – | – | – | – | – | – | – | – | – | – | –
CCc1cc(OC)ccc1-c1ccc(CC(CNC(CCCc2ccccc2F)C(N)=O)NC[C@H](CC(=O)O)NC(=O)[C@H](CO)NC(=O)[C@@H](NC(=O)C(C)(Cc2ccccc2F)NC(=O)[C@@H](NC(=O)CNC(=O)[C@H](CCC(N)=O)NC(=O)C(C)(C)NC(=O)[C@H](Cc2c[nH]cn2)NC(=O)OC)[C@@H](C)O)[C@@H](C)O)cc1 (single isomer, unassigned) [Seq. ID. 196] | – | – | – | – | – | – | – | – | 181 ± 2.5 | 111 ± 3.4 | 113 ± 3.1 | 110 ± 1.8 | – | – | – | – | – | – | – | –
